Test system: not listed separately
Test: Displacement of [20-3H]PDBu from GST-tagged mouse PKC-delta C1B domain N7R/L20R mutant expressed in Escherichia coli after 2 to 30 mins by polyethylene glycol precipitation assay in presence of phosphatidylserine

Compound	Ki [nM]
CC(C)C(CC(=O)OCC1(CO)C/C(=C\c2cccc(C(=O)O)c2)C(=O)O1)C(C)C (configuration not stated)	45900

Species: Mus musculus
Test: Selectivity ratio of Ki for GST-tagged mouse PKC-delta C1B domain N7R mutant to Kd for GST-tagged full-length mouse PKC-delta C1B domain

Selectivity ratio	Compound
1.17	CC(C)CC(CC(=O)OCC1(CO)C/C(=C\c2ccc(C(C(=O)OC(C)(C)C)C(=O)OC(C)(C)C)cc2)C(=O)O1)CC(C)C (configuration not stated)
0.94	CC(C)CC(CC(=O)OCC1(CO)C/C(=C\c2cccc(C(=O)O)c2)C(=O)O1)CC(C)C (configuration not stated)
1.01	CC(C)C(CC(=O)OCC1(CO)C/C(=C\c2cccc(O)c2)C(=O)O1)C(C)C (configuration not stated)
0.3	CC(C)C(CC(=O)OCC1(CO)C/C(=C\c2cccc(C(=O)O)c2)C(=O)O1)C(C)C (configuration not stated)

Test system: not listed separately
Test: Displacement of [20-3H]PDBu from GST-tagged mouse PKC-delta C1B domain N7R mutant expressed in Escherichia coli after 2 to 30 mins by polyethylene glycol precipitation assay in presence of phosphatidylserine

Compound	Ki [nM]
CC(C)CC(CC(=O)OCC1(CO)C/C(=C\c2ccc(C(C(=O)OC(C)(C)C)C(=O)OC(C)(C)C)cc2)C(=O)O1)CC(C)C (configuration not stated)	0.7
CC(C)CC(CC(=O)OCC1(CO)C/C(=C\c2cccc(C(=O)O)c2)C(=O)O1)CC(C)C (configuration not stated)	281
CC(C)C(CC(=O)OCC1(CO)C/C(=C\c2cccc(O)c2)C(=O)O1)C(C)C (configuration not stated)	2.48
CC(C)C(CC(=O)OCC1(CO)C/C(=C\c2cccc(C(=O)O)c2)C(=O)O1)C(C)C (configuration not stated)	640

Species: Mus musculus
Test: Selectivity ratio of Ki for GST-tagged mouse PKC-delta C1B domain S10R mutant to Kd for GST-tagged full-length mouse PKC-delta C1B domain

Selectivity ratio	Compound
1	CC(C)CC(CC(=O)OCC1(CO)C/C(=C\c2ccc(C(C(=O)OC(C)(C)C)C(=O)OC(C)(C)C)cc2)C(=O)O1)CC(C)C (configuration not stated)
1.56	CC(C)CC(CC(=O)OCC1(CO)C/C(=C\c2cccc(C(=O)O)c2)C(=O)O1)CC(C)C (configuration not stated)
0.85	CC(C)C(CC(=O)OCC1(CO)C/C(=C\c2cccc(O)c2)C(=O)O1)C(C)C (configuration not stated)
0.4	CC(C)C(CC(=O)OCC1(CO)C/C(=C\c2cccc(C(=O)O)c2)C(=O)O1)C(C)C (configuration not stated)

Species: Mus musculus
Test: Selectivity ratio of Ki for GST-tagged mouse PKC-delta C1B domain N7R/L20R mutant to Kd for GST-tagged full-length mouse PKC-delta C1B domain

Selectivity ratio	Compound
21.8	CC(C)C(CC(=O)OCC1(CO)C/C(=C\c2cccc(C(=O)O)c2)C(=O)O1)C(C)C (configuration not stated)

Species: Mus musculus
Test: Selectivity ratio of Kd for GST-tagged full-length mouse PKC-delta C1B domain to Ki for GST-tagged mouse PKC-delta C1B domain P11R mutant

Selectivity ratio	Compound
3	CC(C)CC(CC(=O)OCC1(CO)C/C(=C\c2cccc(C(=O)O)c2)C(=O)O1)CC(C)C (configuration not stated)
5	CC(C)C(CC(=O)OCC1(CO)C/C(=C\c2cccc(C(=O)O)c2)C(=O)O1)C(C)C (configuration not stated)

Test system: not listed separately
Test: Displacement of [20-3H]PDBu from GST-tagged mouse PKC-delta C1B domain N7R/P11R mutant expressed in Escherichia coli after 2 to 30 mins by polyethylene glycol precipitation assay in presence of phosphatidylserine

Compound	Ki [nM]
CC(C)C(CC(=O)OCC1(CO)C/C(=C\c2cccc(C(=O)O)c2)C(=O)O1)C(C)C (configuration not stated)	5190

Biological target: Protein kinase C delta type (Mus musculus, UniProt P28867)
Test: Displacement of [20-3H]PDBu from GST-tagged full-length mouse PKC-delta C1B domain expressed in Escherichia coli after 2 to 30 mins by polyethylene glycol precipitation assay in presence of phosphatidylserine

Sequence of Protein kinase C delta type (P28867 whole entry, the tested form may be a part): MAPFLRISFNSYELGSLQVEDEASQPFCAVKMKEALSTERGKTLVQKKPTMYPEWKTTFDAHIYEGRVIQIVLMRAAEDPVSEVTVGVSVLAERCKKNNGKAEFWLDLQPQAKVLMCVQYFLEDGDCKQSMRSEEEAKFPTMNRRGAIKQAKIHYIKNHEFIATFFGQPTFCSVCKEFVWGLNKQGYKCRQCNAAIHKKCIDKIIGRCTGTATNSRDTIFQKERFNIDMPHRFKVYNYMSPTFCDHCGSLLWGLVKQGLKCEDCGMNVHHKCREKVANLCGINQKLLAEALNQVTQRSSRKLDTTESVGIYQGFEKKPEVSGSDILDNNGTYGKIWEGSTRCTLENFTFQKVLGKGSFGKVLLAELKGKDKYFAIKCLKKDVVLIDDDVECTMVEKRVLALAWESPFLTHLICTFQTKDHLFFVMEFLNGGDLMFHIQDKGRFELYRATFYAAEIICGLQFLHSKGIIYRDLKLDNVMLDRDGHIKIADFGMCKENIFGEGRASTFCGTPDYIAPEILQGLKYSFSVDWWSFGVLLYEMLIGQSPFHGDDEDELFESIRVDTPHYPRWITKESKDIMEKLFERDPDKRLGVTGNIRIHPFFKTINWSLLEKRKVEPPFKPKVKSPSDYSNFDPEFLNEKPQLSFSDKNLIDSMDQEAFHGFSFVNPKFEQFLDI

Kd [nM]	Compound
0.6	CC(C)CC(CC(=O)OCC1(CO)C/C(=C\c2ccc(C(C(=O)OC(C)(C)C)C(=O)OC(C)(C)C)cc2)C(=O)O1)CC(C)C (configuration not stated)
300	CC(C)CC(CC(=O)OCC1(CO)C/C(=C\c2cccc(C(=O)O)c2)C(=O)O1)CC(C)C (configuration not stated)
2.46	CC(C)C(CC(=O)OCC1(CO)C/C(=C\c2cccc(O)c2)C(=O)O1)C(C)C (configuration not stated)
2100	CC(C)C(CC(=O)OCC1(CO)C/C(=C\c2cccc(C(=O)O)c2)C(=O)O1)C(C)C (configuration not stated)

Species: Mus musculus
Test: Selectivity ratio of Ki for GST-tagged mouse PKC-delta C1B domain P11R mutant to Kd for GST-tagged full-length mouse PKC-delta C1B domain

Selectivity ratio	Compound
2	CC(C)CC(CC(=O)OCC1(CO)C/C(=C\c2ccc(C(C(=O)OC(C)(C)C)C(=O)OC(C)(C)C)cc2)C(=O)O1)CC(C)C (configuration not stated)
0.33	CC(C)CC(CC(=O)OCC1(CO)C/C(=C\c2cccc(C(=O)O)c2)C(=O)O1)CC(C)C (configuration not stated)
0.94	CC(C)C(CC(=O)OCC1(CO)C/C(=C\c2cccc(O)c2)C(=O)O1)C(C)C (configuration not stated)
0.2	CC(C)C(CC(=O)OCC1(CO)C/C(=C\c2cccc(C(=O)O)c2)C(=O)O1)C(C)C (configuration not stated)

Species: Mus musculus
Test: Selectivity ratio of Ki for GST-tagged mouse PKC-delta C1B domain L20R mutant to Kd for GST-tagged full-length mouse PKC-delta C1B domain

Selectivity ratio	Compound
17.5	CC(C)CC(CC(=O)OCC1(CO)C/C(=C\c2ccc(C(C(=O)OC(C)(C)C)C(=O)OC(C)(C)C)cc2)C(=O)O1)CC(C)C (configuration not stated)
5.33	CC(C)CC(CC(=O)OCC1(CO)C/C(=C\c2cccc(C(=O)O)c2)C(=O)O1)CC(C)C (configuration not stated)
7.87	CC(C)C(CC(=O)OCC1(CO)C/C(=C\c2cccc(O)c2)C(=O)O1)C(C)C (configuration not stated)
1.34	CC(C)C(CC(=O)OCC1(CO)C/C(=C\c2cccc(C(=O)O)c2)C(=O)O1)C(C)C (configuration not stated)

Test system: not listed separately
Test: Displacement of [20-3H]PDBu from GST-tagged mouse PKC-delta C1B domain S10R mutant expressed in Escherichia coli after 2 to 30 mins by polyethylene glycol precipitation assay in presence of phosphatidylserine

Compound	Ki [nM]
CC(C)CC(CC(=O)OCC1(CO)C/C(=C\c2ccc(C(C(=O)OC(C)(C)C)C(=O)OC(C)(C)C)cc2)C(=O)O1)CC(C)C (configuration not stated)	0.6
CC(C)CC(CC(=O)OCC1(CO)C/C(=C\c2cccc(C(=O)O)c2)C(=O)O1)CC(C)C (configuration not stated)	468
CC(C)C(CC(=O)OCC1(CO)C/C(=C\c2cccc(O)c2)C(=O)O1)C(C)C (configuration not stated)	2.08
CC(C)C(CC(=O)OCC1(CO)C/C(=C\c2cccc(C(=O)O)c2)C(=O)O1)C(C)C (configuration not stated)	840

Species: Mus musculus
Test: Selectivity ratio of Ki for GST-tagged mouse PKC-delta C1B domain N7R/P11R mutant to Kd for GST-tagged full-length mouse PKC-delta C1B domain

Selectivity ratio	Compound
2.47	CC(C)C(CC(=O)OCC1(CO)C/C(=C\c2cccc(C(=O)O)c2)C(=O)O1)C(C)C (configuration not stated)

Test system: not listed separately
Test: Displacement of [20-3H]PDBu from GST-tagged mouse PKC-delta C1B domain L20R mutant expressed in Escherichia coli after 2 to 30 mins by polyethylene glycol precipitation assay in presence of phosphatidylserine

Compound	Ki [nM]
CC(C)CC(CC(=O)OCC1(CO)C/C(=C\c2ccc(C(C(=O)OC(C)(C)C)C(=O)OC(C)(C)C)cc2)C(=O)O1)CC(C)C (configuration not stated)	10.5
CC(C)CC(CC(=O)OCC1(CO)C/C(=C\c2cccc(C(=O)O)c2)C(=O)O1)CC(C)C (configuration not stated)	1600
CC(C)C(CC(=O)OCC1(CO)C/C(=C\c2cccc(O)c2)C(=O)O1)C(C)C (configuration not stated)	19.4
CC(C)C(CC(=O)OCC1(CO)C/C(=C\c2cccc(C(=O)O)c2)C(=O)O1)C(C)C (configuration not stated)	2820

Test system: not listed separately
Test: Displacement of [20-3H]PDBu from GST-tagged mouse PKC-delta C1B domain P11R mutant expressed in Escherichia coli after 2 to 30 mins by polyethylene glycol precipitation assay in presence of phosphatidylserine

Compound	Ki [nM]
CC(C)CC(CC(=O)OCC1(CO)C/C(=C\c2ccc(C(C(=O)OC(C)(C)C)C(=O)OC(C)(C)C)cc2)C(=O)O1)CC(C)C (configuration not stated)	1.2
CC(C)CC(CC(=O)OCC1(CO)C/C(=C\c2cccc(C(=O)O)c2)C(=O)O1)CC(C)C (configuration not stated)	100
CC(C)C(CC(=O)OCC1(CO)C/C(=C\c2cccc(O)c2)C(=O)O1)C(C)C (configuration not stated)	2.32
CC(C)C(CC(=O)OCC1(CO)C/C(=C\c2cccc(C(=O)O)c2)C(=O)O1)C(C)C (configuration not stated)	421

Source: ChEMBL document CHEMBL3259571, “Diacylglycerol lactones targeting the structural features that distinguish the atypical C1 domains of protein kinase C ζ and ι from typical C1 domains” (J Med Chem, 2014)
